The source of these data is patent US8101550B2, “Anthranilic acid diamide derivative with hetero-aromatic and hetero-cyclic substituents” (Bayer Cropscience AG, priority 2006, dated 2012).

The nature of one data set: log P determination by HPLC on reverse-phase column (EEC Directive 79/831 Annex V.A8). The class given is physicochemical.
Conditions: not given
How it is done: The log P values stated in the foregoing tables and preparation examples are determined in accordance with EEC Directive 79/831 Annex V.A8 by means of HPLC (High Performance Liquid Chromatography) on a reverse-phase column (C 18). Temperature: 43° C.
The determination by LC-MS in the acidic range takes place at a pH of 2.7 using 0.1% aqueous formic acid and acetonitrile (containing 0.1% formic acid) as eluents; linear gradient from 10% acetonitrile to 95% acetonitrile.
Calibration is with unbranched alkan-2-ones (having 3 to 16 carbon atoms) of known log P value (log P values determined from the retention times by linear interpolation between two successive alkanones).
Turning to `Cc1cc(I)cc(C(=O)NC2CC2)c1NC(=O)c1cc(Cn2cc(Cl)c(C(F)(F)C(F)(F)F)n2)nn1-c1ncccc1Cl` [I-1-276], the log partition coefficient (logP) is 4.15.
Same read-out and setting: the result for `Cc1cc(I)cc(C(=O)NC2CCC2)c1NC(=O)c1cc(Cn2nc(C(F)(F)F)nc2C(F)(F)F)nn1-c1ncccc1Cl` [I-1-282] reads 4.18; that for `Cc1cc(I)cc(C(=O)NC(C)C2CC2)c1NC(=O)c1cc(Cn2cc(Cl)c(C(F)(F)C(F)(F)F)n2)nn1-c1ncccc1Cl` (centres unmarked) [I-1-287], 4.69; that for `CCNC(=O)c1cc(I)cc(C)c1NC(=O)c1cc(Cn2nc(C(F)(F)F)nc2C(F)(F)F)nn1-c1ncccc1Cl` [I-1-244], 3.83.
In turn, `Cc1cc(I)cc(C(N)=O)c1NC(=O)c1cc(Cn2nc(C(F)(F)F)cc2C(F)(F)F)nn1-c1ncccc1Cl` [I-1-234] gave a logP of 3.56.
On the same count and under the same terms, the result for `Cc1cc(C#N)cc(C(=O)NC2CC2)c1NC(=O)c1cc(Cn2cc(Cl)c(C(F)(F)C(F)(F)F)n2)nn1-c1ncccc1Cl` [I-1-173] reads 3.59.
For the molecule `CCNC(=O)c1cc(I)cc(C)c1NC(=O)c1cc(Cn2nc(C(F)(F)F)nc2C(F)(F)F)nn1-c1ncccc1Cl` [I-1-283], the logP was found to be 3.89.
Still for that read-out and setting: under `N#CCNC(=O)c1cc(Cl)cc(Cl)c1NC(=O)c1cc(Cn2cnc(C(F)(F)C(F)(F)F)n2)nn1-c1ncccc1Cl` [I-1-337] stands 2.56; under `N#CCNC(=O)c1cc(Cl)cc(Cl)c1NC(=O)c1cc(Cn2cnc(C(F)(F)C(F)(F)F)n2)nn1-c1ncccc1Cl` [I-1-349], 2.19; under `Cc1cc(Cl)cc(C(=O)NCC#N)c1NC(=O)c1cc(Cn2cnc(C(F)(F)C(F)(F)F)n2)nn1-c1ncccc1Cl` [I-1-332], 2.59.
Still for that read-out and setting: the result for `O=C(NC1CC1)c1cc(Cl)cc(Cl)c1NC(=O)c1cc(Cn2nc(C(F)F)c([N+](=O)[O-])c2C(F)F)nn1-c1ncccc1Cl` [I-1-261] reads 3.08.
Still for that read-out and setting: the result for `Cc1cc(Cl)cc(C(=O)NCc2ccco2)c1NC(=O)c1cc(Cn2cc(Cl)c(C(F)(F)C(F)(F)F)n2)nn1-c1ncccc1Cl` [I-1-201] reads 4.21; that for `Cc1cc(I)cc(C(=O)NCC#N)c1NC(=O)c1cc(Cn2cc(Cl)c(C(F)(F)C(F)(F)F)n2)nn1-c1ncccc1Cl` [I-1-246], 3.85.
For `CNC(=O)c1cc(Cl)cc(C)c1NC(=O)c1cc(Cn2cnc(-c3ccc(Cl)cc3)n2)nn1-c1ncccc1Cl` [I-1-153], the logP is on record as 3.07.
Molecule `Cc1cc(I)cc(C(=O)NC2CC2)c1NC(=O)c1cc(Cn2nc(C(F)(F)F)nc2C(F)(F)F)nn1-c1ncccc1Cl` [I-1-252] came in with a lipophilicity (logP) of 3.81.
Same read-out and setting: the result for `Cc1cc(F)cc(C(=O)NCc2ccco2)c1NC(=O)c1cc(Cn2cc(Cl)c(C(F)(F)C(F)(F)F)n2)nn1-c1ncccc1Cl` [I-1-196] reads 3.90; that for `Cc1cc(Cl)cc(C(=O)NC2CC2)c1NC(=O)c1cc(Cn2nc(C(F)F)c([N+](=O)[O-])c2C(F)F)nn1-c1ncccc1Cl` [I-1-260], 3.12; that for `CNC(=O)c1cc(I)cc(C)c1NC(=O)c1cc(Cn2cc(C(F)(F)C(F)(F)F)c(C(F)(F)C(F)(F)F)n2)nn1-c1ncccc1Cl` [I-1-239], 4.51.
On the same count and under the same terms, the result for `CC(C)NC(=O)c1cc(Cl)cc(Cl)c1NC(=O)c1cc(Cc2ccoc2)nn1-c1ncccc1Cl` [I-1-301] reads 2.60; that for `NC(=O)c1cc(Cl)cc(Cl)c1NC(=O)c1cc(Cn2nc(C(F)(F)F)nc2C(F)(F)F)nn1-c1ncccc1Cl` [I-1-298], 2.61.
`CNC(=O)c1cc(I)cc(C)c1NC(=O)c1cc(Cn2ccc(C(F)(F)F)n2)nn1-c1ncccc1Cl` [I-1-247]: the logP turned out to be 3.05.
On the same count and under the same terms, the result for `Cc1cc(Cl)cc(C(=O)NC(C)C)c1NC(=O)c1cc(Cn2nc(C)c(Br)c2C)nn1-c1ncccc1Cl` [I-1-269] reads 3.4.
The same measure, in the same setting: under `Cc1cc(C#N)cc(C(=O)NCC#N)c1NC(=O)c1cc(Cn2cc(Cl)c(C(F)(F)C(F)(F)F)n2)nn1-c1ncccc1Cl` [I-1-175] stands 3.40; under `NC(=O)c1cc(Cl)cc(Cl)c1NC(=O)c1cc(Cn2cc(Cl)c(C(F)(F)C(F)(F)F)n2)nn1-c1ncccc1Cl` [I-1-307], 2.95.
Regarding `CCNC(=O)c1cc(I)cc(C)c1NC(=O)c1cc(Cn2cc(Cl)c(C(F)(F)C(F)(F)F)n2)nn1-c1ncccc1Cl` [I-1-277], the logP came to 4.17.
Still for that read-out and setting: under `Cc1cc(I)cc(C(=O)NC(C2CC2)C2CC2)c1NC(=O)c1cc(Cn2nc(C(F)(F)F)cc2C(F)(F)F)nn1-c1ncccc1Cl` [I-1-236] stands 4.80; under `CNC(=O)c1cc(Cl)cc(C)c1NC(=O)c1cc(Cn2cnc(C(F)(F)C(F)(F)F)n2)nn1-c1ncccc1Cl` [I-1-329], 2.57; under `Cc1cc(C#N)cc(C(=O)NC2CC2)c1NC(=O)c1cc(Cn2ccc(C(F)(F)F)n2)nn1-c1ncccc1Cl` [I-1-183], 2.75.
In turn, `CCN(CC)CC(C)NC(=O)c1cc(Cl)cc(C)c1NC(=O)c1cc(Cn2cc(Cl)c(C(F)(F)C(F)(F)F)n2)nn1-c1ncccc1Cl` (centres unmarked) [I-1-215] came in with a lipophilicity (logP) of 2.62.
For `Cc1cc(I)cc(C(=O)NC(C)C)c1NC(=O)c1cc(Cn2cc(Cl)c(C(F)(F)C(F)(F)F)n2)nn1-c1ncccc1Cl` [I-1-242], the log partition coefficient (logP) was 4.40.
In the case of `CNC(=O)c1cc(Cl)cc(Cl)c1NC(=O)c1cc(Cn2nc(C(F)(F)F)nc2C(F)(F)F)nn1-c1ncccc1Cl` [I-1-290], the logP amounted to 3.40.
Same read-out and setting: the result for `CNC(=O)c1cc(Cl)cc(C)c1NC(=O)c1cc(Cn2cnc(SC)n2)nn1-c1ncccc1Cl` [I-1-265] reads 1.94; that for `Cc1cc(Cl)cc(C(=O)N=S(C(C)C)C(C)C)c1NC(=O)c1cc(Cn2nc(C(F)(F)F)nc2C(F)(F)F)nn1-c1ncccc1Cl` [I-1-167], 4.44; that for `Cc1cc(I)cc(C(=O)NCC2CC2)c1NC(=O)c1cc(Cn2nc(C(F)(F)F)cc2C(F)(F)F)nn1-c1ncccc1Cl` [I-1-235], 4.34.
Still for that read-out and setting: under `Cc1cc(Cl)cc(C(N)=O)c1NC(=O)c1cc(Cn2cnc(C(F)(F)C(F)(F)F)n2)nn1-c1ncccc1Cl` [I-1-343] stands 2.02; under `CNC(=O)c1cc(C#N)cc(C)c1NC(=O)c1cc(Cn2cc(C(F)(F)C(F)(F)F)c(C(F)(F)C(F)(F)F)n2)nn1-c1ncccc1Cl` [I-1-170], 4.08; under `Cc1cc(Cl)cc(C(=O)NC(C)C)c1NC(=O)c1cc(Cn2nnn(-c3ccc(Cl)cc3)c2=O)nn1-c1ncccc1Cl` [I-1-168], 3.79.
Same read-out and setting: under `O=C(NC1CC1)c1cc(Cl)cc(Cl)c1NC(=O)c1cc(Cn2cnc(C(F)(F)C(F)(F)F)n2)nn1-c1ncccc1Cl` [I-1-335] stands 2.69; under `CNC(=O)c1cc(F)cc(C)c1NC(=O)c1cc(Cn2nc(C(F)(F)F)nc2C(F)(F)F)nn1-c1ncccc1Cl` [I-1-219], 3.12.

The data set is the same for the next values; noted with them: HPLC on reverse-phase column.
With `CSC[C@H](C)NC(=O)c1cc(Cl)cc(C)c1NC(=O)c1cc(Cn2nc(C(F)(F)F)nc2C(F)(F)F)nn1-c1ncccc1Cl` [I-1-75], the log partition coefficient (logP) turned out to be 4.04.
The same measure, in the same setting: under `CNC(=O)c1cc(Cl)cc(C)c1NC(=O)c1cc(Cn2cc(C(F)(F)F)cn2)nn1-c1ncccc1Cl` [I-1-42] stands 2.76; under `Cc1cc(Br)cc(C(=O)NC(C)C[S+](C)[O-])c1NC(=O)c1cc(Cn2cc(Br)c(C(F)(F)F)n2)nn1-c1ncccc1Cl` (centres unmarked) [I-1-113], 2.97.
`CNC(=O)c1cc(Cl)cc(C)c1NC(=O)c1cc(Cn2nnc(-c3ccc(Cl)nc3)n2)nn1-c1ncccc1Cl` [I-1-148] displayed a logP of 2.91.
Same read-out and setting: under `Cc1cc(Br)cc(C(N)=O)c1NC(=O)c1cc(Cn2cc(Br)c(C(F)(F)F)n2)nn1-c1ncccc1Cl` [I-1-100] stands 3.24; under `Cc1cc(Cl)cc(C(N)=O)c1NC(=O)c1cc(Cn2cc(C(F)(F)C(F)(F)F)c(C(F)(F)C(F)(F)F)n2)nn1-c1ncccc1Cl` [I-1-48], 4.15; under `Cc1cc(Cl)cc(C(N)=O)c1NC(=O)c1cc(Cn2nnc(-c3cc(C(F)(F)F)cc(C(F)(F)F)c3)n2)nn1-c1ncccc1Cl` [I-1-114], 4.03.
For the molecule `CNC(=O)c1cc(Cl)cc(C)c1NC(=O)c1cc(Cn2nc(C(F)(F)F)n(-c3ccccc3)c2=O)nn1-c1ncccc1Cl` [I-1-118], the lipophilicity (logP) turned out to be 3.10.
Still for that read-out and setting: the result for `Cc1cc(Br)cc(C(=O)NC2CC2)c1NC(=O)c1cc(Cn2cc(C(F)(F)C(F)(F)F)c(C(F)(F)C(F)(F)F)n2)nn1-c1ncccc1Cl` [I-1-52] reads 4.59; that for `Cc1cc(Cl)cc(C(=O)NCC#N)c1NC(=O)c1cc(Cn2nnc(-c3ccc(C(F)(F)F)cc3)n2)nn1-c1ncccc1Cl` [I-1-107], 3.65.
The same measure, in the same setting: under `Cc1cc(Cl)cc(C(=O)NC(C)C)c1NC(=O)c1cc(Cn2cc(I)c(C(F)(F)F)n2)nn1-c1ncccc1Cl` [I-1-63] stands 3.85.
The same measure, in the same setting: under `Cc1cc(Cl)cc(C(=O)NC(C)C)c1NC(=O)c1cc(Cn2nc(C(F)(F)F)n(-c3ccccc3)c2=O)nn1-c1ncccc1Cl` [I-1-119] stands 3.54; under `Cc1cc(Cl)cc(C(=O)NC2CC2)c1NC(=O)c1cc(Cn2nc(C(F)(F)F)nc2C(F)(F)F)nn1-c1ncccc1Cl` [I-1-54], 3.61.

The same data set, now with this note: HPLC, reverse-phase column (C 18), 43° C., acidic range pH 2.7.
Regarding `CNC(=O)c1cc(Cl)cc(Cl)c1NC(=O)c1cc(Cn2nc(C(F)(F)F)nc2C(F)(F)F)nn1C1CCCO1` (centres unmarked) [I-2-5], the logP amounted to 2.83.
On the same count and under the same terms, under `Cc1cc(Cl)cc(C(=O)NC(C)C2CC2)c1NC(=O)c1cc(Cn2nc(C(F)(F)F)cc2C(F)(F)F)nn1-c1ncc(C(F)(F)F)cc1Cl` (centres unmarked) [I-2-15] stands 4.04.
Same read-out and setting: under `CC(C)NC(=O)c1cc(Cl)cc(Cl)c1NC(=O)c1cc(Cn2nc(C(F)(F)F)nc2C(F)(F)F)nn1C(C)C` [I-2-2] stands 3.85; under `Cc1cc(F)cc(C(=O)NC2CC2)c1NC(=O)c1cc(Cn2nc(C(F)(F)F)cc2C(F)(F)F)nn1-c1ncc(C(F)(F)F)cc1Cl` [I-2-19], 4.11.
